This assay concerns the target T1, human recombinant A1 adenosine receptors (Homo sapiens, UniProt P30542).
T1 construct: expressed in transfected cells; host or cells: Chinese hamster ovary (CHO) cells, CHO:huA1, G-418 selected
T1 sequence (P30542 1-326): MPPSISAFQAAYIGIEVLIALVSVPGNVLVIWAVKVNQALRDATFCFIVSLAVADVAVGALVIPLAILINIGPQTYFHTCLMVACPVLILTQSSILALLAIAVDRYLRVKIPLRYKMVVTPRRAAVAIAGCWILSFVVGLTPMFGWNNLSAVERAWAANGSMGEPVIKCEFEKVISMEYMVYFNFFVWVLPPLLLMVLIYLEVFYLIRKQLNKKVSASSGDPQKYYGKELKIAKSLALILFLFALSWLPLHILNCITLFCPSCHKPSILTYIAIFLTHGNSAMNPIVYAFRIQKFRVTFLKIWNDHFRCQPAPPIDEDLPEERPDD
The experiment in a line: Allosteric enhancement: reduction of cAMP content of CHO:huA1 cells (radioimmunoassay). Conditions: forskolin 1 μM, rolipram 20 μM, CPA 0.01 nM, adenosine deaminase, 6 min at 36° C.; for inhibition at 0.01 µM / inhibition at 0.1 µM / inhibition at 1 µM / inhibition at 10 µM: 0.1 h, read-out: Change in cAMP Content from Control (mean + SEM). The format is cell-based. As to the method:
Chinese hamster ovary cells expressing human recombinant A1 adenosine receptors (CHO:huA1 cells) at a density of approximately 8000 fmol/mg protein were prepared as previously described (Kollias-Baker et al., (1997), J. Pharmacol. Exp. Ther. 281: 761–768) and aliquots of the cells at low passage numbers were frozen and stored in liquid nitrogen. When compounds were tested, an aliquot of CHO:huA1 cells were rapidly thawed after removal from liquid nitrogen, then grown in Ham's F12 culture medium with 10% fetal bovine serum and 0.5 mg/mL of antibiotic G-418 (Shryock, Ozeck, and Belardinelli (1998), Mol. Pharmacol 53: 886–893). Cells were passaged thrice weekly. Aliquots of cells were placed into 12-well plates with culture medium, serum, and antibiotic for 48 hours, by which time the cells had grown to a confluent monolayer.
Allosteric enhancement was measured as the action of a test compound at different concentrations (0.01, 0.1, 1 and 10 μM) to reduce the cAMP content of CHO:huA1 cells. To initiate an experiment, growth medium was removed from the 12-well plates and cells were washed once with warm Hanks' buffered saline. The wash solution was then removed and replaced with fresh Hanks' solution containing forskolin (1 μM), rolipram (20 μM), N^6-cyclopentyladenosine (CPA, 0.01 nM), adenosine deaminase (2 U/mL), and the test compound. Forskolin was used to stimulate the activity of adenylyl cyclase, rolipram to inhibit cAMP phosphodiesterase, adenosine deaminase to degrade endogenous adenosine, and CPA to cause a small increase of the number of activated adenosine receptors. After 6 min of incubation at 36° C. in the presence of test compound, the incubation solution was removed and hydrochloric acid (final concentration 50 mM) was added to terminate drug action.
The content of cAMP in acidified extracts of cells was determined by radioimmunoassay as previously described (Kollias-Baker et al., (1997), J. Pharmacol. Exp. Ther. 281: 761–768). Because the magnitude of the effects of allosteric enhancers on CHO:huA1 cells changed subtly with passage number and differed slightly among different aliquots of cells, the actions of the test compounds and the action of a reference compound (PD 81,723) were assessed in each experiment. The effect of each test compound on cAMP content is presented in Table 1 as a percentage of the value of cAMP content in the absence of drug (control, 100%). Each value is a mean±standard error of 6 determinations in each of the number of experiments indicated in the “n” column of the table.

The record followed here is patent US7112607B2, “Allosteric adenosine receptor modulators” (King Pharmaceuticals Research & Development, Inc., priority 1997, dated 2006).

`Nc1sc2c(c1C(=O)c1ccco1)CCN(Cc1ccccc1)C2` [Example 12, (2-Amino-6-benzyl-4,5,6,7-tetrahydrothieno[2,3-c]pyridin-3-yl)-furan-2-yl-methanone]: the inhibition at 0.01 µM (0.01 μM test compound) turned out to be 27 ± 4%. The inhibition at 0.1 µM (0.1 μM test compound) amounted to 0.6 ± 4%. The inhibition at 1 µM (1 μM test compound) was found to be 15 ± 3%. Also, the inhibition at 10 µM (10 μM test compound) was found to be 8 ± 11%.

Turning to `Cc1sc(N)c(C(=O)c2ccco2)c1C` [Example 13, (2-Amino-4,5-dimethylthiophen-3-yl)-furan-2-yl-methanone], for the setting “0.01 μM test compound”, the inhibition at 0.01 µM was 4 ± 5%. The inhibition at 0.1 µM (0.1 μM test compound) is -11 ± 5%. In addition, the inhibition at 1 µM (1 μM test compound) turned out to be 7 ± 5%. Further, under “10 μM test compound”, the inhibition at 10 µM was -5 ± 10%.

As for `Nc1sc2c(c1C(=O)c1cc3ccccc3o1)CCCC2` [Example 14, (2-Amino-4,5,6,7-tetrahydrobenzo[b]thiophen-3-yl)-benzofuran-2-yl-methanone], the inhibition at 0.01 µM (0.01 μM test compound) was 13 ± 5%. The inhibition at 0.1 µM (0.1 μM test compound) is 3 ± 4%. Where the note is “1 μM test compound”, the inhibition at 1 µM came out at 4 ± 3%. Besides, for the setting “10 μM test compound”, the inhibition at 10 µM was determined as 5 ± 4%.

In the case of `Nc1sc2c(c1C(=O)c1cc3ccccc3o1)CCC2` [Example 15, (2-Amino-5,6-dihydro-4H-cyclopenta[b]thiophen-3-yl)-benzofuran-2-yl-methanone], the inhibition at 0.01 µM (0.01 μM test compound) stood at 5 ± 3%. Further, for the setting “0.1 μM test compound”, the inhibition at 0.1 µM turned out to be 13 ± 3%. Also, for the setting “1 μM test compound”, the inhibition at 1 µM is -3 ± 5%. Besides, the inhibition at 10 µM (10 μM test compound) is 4 ± 6%.

For the molecule `Nc1sc2c(c1C(=O)c1cc3ccccc3o1)CCN(Cc1ccccc1)C2` [Example 16, (2-Amino-6-benzyl-4,5,6,7-tetrahydrothieno[2,3-c]pyridin-3-yl)-benzofuran-2-yl-methanone], the inhibition at 0.01 µM (0.01 μM test compound) was -4 ± 3%. Also, the inhibition at 0.1 µM (0.1 μM test compound) is -14 ± 4%. Further, the inhibition at 1 µM (1 μM test compound) is 10 ± 2%. For the same molecule, the inhibition at 10 µM (10 μM test compound) is -11 ± 4%.

Consider `Nc1sc2c(c1C(=O)c1ccccn1)CCC2` [Example 17], for which the “Change in cAMP Content from Control (mean + SEM)” value (“Change … (mean + SEM)” below) (0.01 μM test compound) is recorded as −3 ± 4%, the “Change … (mean + SEM)” value (0.1 μM test compound) is given as 0.8 ± 7%, the “Change … (mean + SEM)” value (1 μM test compound) is reported as −1 ± 6% and the “Change … (mean + SEM)” value (10 μM test compound) came out at 2 ± 7%.

In the case of `Cc1sc(N)c(C(=O)c2cc3ccccc3o2)c1C` [Example 18, (2-Amino-4,5-dimethylthiophen-3-yl)-benzofuran-2-yl-methanone], the inhibition at 0.01 µM (0.01 μM test compound) is -6 ± 5%. Under “0.1 μM test compound”, the inhibition at 0.1 µM was 7 ± 4%. For the setting “1 μM test compound”, the inhibition at 1 µM was -16 ± 5%. Moreover, the inhibition at 10 µM (10 μM test compound) was -7 ± 6%.

On to `Nc1sc2c(c1C(=O)c1ccccn1)CCCC2` [Example 19, (2-Amino-4,5,6,7-tetrahydrobenzo[b]thiophen-3-yl)-pyridin-2-yl-methanone], for which, where the note is “0.01 μM test compound”, the inhibition at 0.01 µM is 2 ± 4%. In addition, the inhibition at 0.1 µM (0.1 μM test compound) came out at 8 ± 5%. Moreover, under “1 μM test compound”, the inhibition at 1 µM worked out at 11 ± 5%. The inhibition at 10 µM (10 μM test compound) was -8 ± 3%.

For the molecule `Nc1sc2c(c1C(=O)c1ccccn1)CCN(Cc1ccccc1)C2` [Example 20, (2-Amino-6-benzyl-4,5,6,7-tetrahydrothieno[2,3-c]pyridin-3-yl)-pyridin-2-yl-methanone], the inhibition at 0.01 µM (0.01 μM test compound) was -2 ± 4%. Also, the inhibition at 0.1 µM (0.1 μM test compound) was -7 ± 5%. For the same molecule, where the note is “1 μM test compound”, the inhibition at 1 µM was -0.1 ± 5%. Under “10 μM test compound”, the inhibition at 10 µM is -31 ± 3%.

As for `Cc1sc(N)c(C(=O)c2ccccn2)c1C` [Example 21, (2-Amino-4,5-dimethylthiophen-3-yl)-pyridin-2-yl-methanone], the inhibition at 0.01 µM (0.01 μM test compound) was -0.7 ± 3%. The inhibition at 0.1 µM (0.1 μM test compound) was 8 ± 3%. For the same molecule, the inhibition at 1 µM (1 μM test compound) was -4 ± 4%. The inhibition at 10 µM (10 μM test compound) is -14 ± 4%.

For the molecule `Nc1sc2c(c1C(=O)c1ccc(Br)c3ccccc13)CCC2` [Example 22, (2-Amino-5,6-dihydro-4H-cyclopenta[b]thiophen-3-yl)-(4-bromonaphthalen-1-yl)-methanone], the inhibition at 0.01 µM (0.01 μM test compound) was -3 ± 3%. In addition, the inhibition at 0.1 µM (0.1 μM test compound) is -19 ± 5%. Also, for the setting “1 μM test compound”, the inhibition at 1 µM was 14 ± 5%. Also, under “10 μM test compound”, the inhibition at 10 µM amounted to 67 ± 3%.

As to `COc1ccc(C(=O)c2c(N)sc3c2CCC3)c2ccccc12` [Example 23], the “Change … (mean + SEM)” value was −6 ± 3% (0.01 μM test compound), −3 ± 4% (0.1 μM test compound), −8 ± 4% (1 μM test compound) and −35 ± 3% (10 μM test compound).

`Nc1sc2c(c1C(=O)c1ccc(I)c3ccccc13)CCC2` [Example 24, (2-Amino-1,6-dihydro-4H-cyclopenta[b]thiophen-3-yl)-(4-iodonaphthalen-1-yl)-methanone]: for the setting “0.01 μM test compound”, the inhibition at 0.01 µM came to 6 ± 3%. The inhibition at 0.1 µM (0.1 μM test compound) amounted to 8 ± 3%. The inhibition at 1 µM (1 μM test compound) was 22 ± 4%. Moreover, the inhibition at 10 µM (10 μM test compound) is 75 ± 1%.

With `Nc1sc2c(c1C(=O)c1ccc(Cl)c3ccccc13)CCC2` [Example 25, (2-Amino-5,6-dihydro-4H-cyclopenta[b]thiophen-3-yl)-(4-chloronaph-thalen-1-yl)-methanone], the “Change … (mean + SEM)” value reads like this: (0.01 μM test compound) −10 ± 2%; (0.1 μM test compound) −15 ± 4%; (1 μM test compound) −27 ± 2%; (10 μM test compound) −55 ± 2%.

In the case of `Nc1sc2c(c1C(=O)c1ccc(I)c3ccccc13)CCCC2` [Example 26, (2-Amino-4,5,6,7-tetrahydrobenzo[b]thiophen-3-yl)-(4-iodonaphthalen-1-yl)-methanone], the inhibition at 0.01 µM (0.01 μM test compound) is 3 ± 4%. In addition, for the setting “0.1 μM test compound”, the inhibition at 0.1 µM came out at 4 ± 4%. Besides, the inhibition at 1 µM (1 μM test compound) amounted to 24 ± 5%. Further, where the note is “10 μM test compound”, the inhibition at 10 µM was 67 ± 2%.

Regarding `COc1ccc(C(=O)c2c(N)sc3c2CCCC3)c2ccccc12` [Example 27, (2-Amino-4,5,6,7-tetrahydrobenzo[b]thiophen-3-yl)-(4-methoxynaph-thalen-1-yl)-methanone], the “Change … (mean + SEM)” value is, setting by setting: (0.01 μM test compound) 5 ± 4%; (0.1 μM test compound) −5 ± 4%; (1 μM test compound) −3 ± 3%; (10 μM test compound) −17 ± 1%.

Take `Nc1sc2c(c1C(=O)c1ccc(Cl)c3ccccc13)CCCC2` [Example 28, (2-Amino-4,5,6,7-tetrahydrobenzo[b]thiophen-3-yl)-(4-chloronaphthalen-1-yl)-methanone]: the inhibition at 0.01 µM (0.01 μM test compound) came out at 11 ± 3%. Also, the inhibition at 0.1 µM (0.1 μM test compound) is -3 ± 3%. Also, for the setting “1 μM test compound”, the inhibition at 1 µM amounted to 25 ± 4%. The inhibition at 10 µM (10 μM test compound) was 44 ± 2%.

Consider `Nc1sc2c(c1C(=O)c1ccc(Br)c3ccccc13)CCCC2` [Example 29, (2-Amino-4,5,6,7-tetrahydrobenzo[b]thiophen-3-yl)-(4-bromonaphthalen-1-yl)-methanone], for which the inhibition at 0.01 µM (0.01 μM test compound) is 6 ± 3%. In addition, the inhibition at 0.1 µM (0.1 μM test compound) was determined as 10 ± 2%. The inhibition at 1 µM (1 μM test compound) is 29 ± 2%. For the same molecule, the inhibition at 10 µM (10 μM test compound) worked out at 72 ± 1%.

`Nc1sc2c(c1C(=O)c1ccc3ccccc3c1)CCCC2` [Example 30, (2-Amino-4,5,6,7-tetrahydrobenzo[b]thiophen-3-yl)-naphthalen-2-yl-methanone]: under “0.01 μM test compound”, the inhibition at 0.01 µM was 13 ± 4%. Besides, the inhibition at 0.1 µM (0.1 μM test compound) is 24 ± 3%. In addition, the inhibition at 1 µM (1 μM test compound) amounted to 28 ± 2%. Also, the inhibition at 10 µM (10 μM test compound) was 42 ± 3%.
